Laboratory results from US8778919B2, “Cyclic anilino—pyridinotriazines” (Janssen Pharmaceutica NV, priority 2005, dated 2014).

Assays:
[1] = biological target: GSK-3α (Homo sapiens, UniProt P49840); test: GSK-3 kinase assay (C1), GSK-3α; type: biochemical; conditions: 1 μM ATP, read-out: C1 Score α
Protocol: (§1) In vitro GSK-3 assays were performed at room temperature in a 100 μl reaction volume of 25 mM Tris (pH 7.4) containing 10 mM MgCl2.6H2O, 1 mM DTT, 0.1 mg/ml BSA, 5% glycerol, 5.7 ng/μl GSK-3β or 0.25 ng/μl GSK-3α, 5 μM biotinylated CREB peptide, 1 μM ATP, 0.85 μCi/ml ^33P-ATP and a suitable amount of a test compound. After one hour, the reaction was terminated by adding 70 μl of Stop mix (0.1 mM ATP, 5 mg/ml streptavidin coated PVT SPA beads, pH 11.0). The beads were allowed to settle overnight and the radioactivity attached to the beads was counted in a microtiter plate scintillation counter and compared with the results obtained in a control experiment (without the presence of a test compound) in order to determine the percentage of GSK-3 inhibition. The IC50 value, i.e. the concentration (M) of the test compound at which 50% of GSK-3 is inhibited, was calculated from the dose response curve obtained by performing the above-described GSK-3 assay in the presence of different amounts of the test compound. Score 1=pIC50 value<6, Score 2=pIC50 value from 6-7, Score 3=pIC50 value from 7-8, Score 4=pIC50 value>8.

[2] = biological target: GSK-3β (Homo sapiens, UniProt P49841); test: GSK-3 kinase assay (C1), GSK-3β; type: biochemical; conditions: 1 μM ATP, read-out: C1 Score β
GSK-3β, sequence (P49841 whole entry, species assumed): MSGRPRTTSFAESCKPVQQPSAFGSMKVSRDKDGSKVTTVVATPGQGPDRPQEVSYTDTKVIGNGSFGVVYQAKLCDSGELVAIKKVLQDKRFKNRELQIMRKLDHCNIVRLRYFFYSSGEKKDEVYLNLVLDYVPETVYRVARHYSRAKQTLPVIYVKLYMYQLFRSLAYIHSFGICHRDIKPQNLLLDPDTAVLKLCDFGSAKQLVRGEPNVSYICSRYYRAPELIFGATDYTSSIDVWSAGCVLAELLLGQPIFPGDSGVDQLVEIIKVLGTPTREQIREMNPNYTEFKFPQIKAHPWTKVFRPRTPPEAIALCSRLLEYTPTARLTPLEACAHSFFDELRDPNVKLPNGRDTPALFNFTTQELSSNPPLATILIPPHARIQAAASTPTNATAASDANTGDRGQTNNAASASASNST
Protocol: as §1

GSK-3α, sequence (P49840 whole entry, species assumed): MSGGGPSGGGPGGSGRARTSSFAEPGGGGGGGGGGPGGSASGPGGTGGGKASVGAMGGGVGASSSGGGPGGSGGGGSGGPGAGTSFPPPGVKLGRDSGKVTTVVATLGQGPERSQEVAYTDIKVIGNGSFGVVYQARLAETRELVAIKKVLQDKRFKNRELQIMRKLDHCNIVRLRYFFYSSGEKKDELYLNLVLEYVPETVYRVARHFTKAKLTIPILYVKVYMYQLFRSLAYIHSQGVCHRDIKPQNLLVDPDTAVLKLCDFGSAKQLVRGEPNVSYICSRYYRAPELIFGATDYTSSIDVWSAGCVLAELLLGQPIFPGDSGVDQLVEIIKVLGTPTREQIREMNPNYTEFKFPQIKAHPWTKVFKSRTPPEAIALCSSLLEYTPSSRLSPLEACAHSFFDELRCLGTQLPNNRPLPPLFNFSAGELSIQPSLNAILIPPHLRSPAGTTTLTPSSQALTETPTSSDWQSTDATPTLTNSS

IC50 [1]	IC50 [2]	SMILES
10 to 100 nM	10 to 100 nM	O=C1NCCCc2cc(ccn2)-c2ncnc(n2)Nc2cccc(c2)CN2CCC1CC2 [Compound 16]
100 to 1000 nM	10 to 100 nM	O=C1NCCc2cccc(c2)Nc2ncnc(n2)-c2ccnc(c2)CCCN2CCCC12 (stereo not drawn) [Compound 28]
10 to 100 nM	10 to 100 nM	O=C1CCN2CCN(CCCc3cc(ccn3)-c3ncnc(n3)Nc3cccc(c3)CCN1)CC2 [Compound 29]
100 to 1000 nM		O=C1CNCc2cccc(c2)Nc2ncnc(n2)-c2cccc(c2)CCCN1 [Compound 42]
100 to 1000 nM	10 to 100 nM	CN1CC(=O)NCCNc2cccc(c2)-c2ncnc(n2)Nc2cccc(c2)C1 [Compound 43]
100 to 1000 nM		C[C@@H]1NCc2cccc(c2)Nc2ncnc(n2)-c2cccc(c2)CCCNC1=O [Compound 44]
10 to 100 nM		O=C1NCCCc2cccc(c2)-c2ncnc(n2)Nc2cccc(c2)CN[C@H]1Cc1ccccc1 [Compound 45]
10 to 100 nM		C[C@H]1NCc2cccc(c2)Nc2ncnc(n2)-c2cccc(c2)CCCNC1=O [Compound 47]
100 to 1000 nM		CC1(C)NCc2cccc(c2)Nc2ncnc(n2)-c2cccc(c2)CCCNC1=O [Compound 48]
10 to 100 nM		CN1CCC(=O)NCCCc2cccc(c2)-c2ncnc(n2)Nc2cccc(c2)C1 [Compound 49]
10 to 100 nM		O=C1NCCCc2cccc(c2)-c2ncnc(n2)Nc2cccc(c2)CN2C[C@@H](O)C[C@H]12 [Compound 50]
10 to 100 nM		O=C1NCCCc2cccc(c2)-c2ncnc(n2)Nc2cccc(c2)CN2CCC1CC2 [Compound 51]
10 to 100 nM		CN1CCCC(=O)NCCCc2cccc(c2)-c2ncnc(n2)Nc2cccc(c2)C1 [Compound 53]
10 to 100 nM		O=C1NCCCc2cccc(c2)-c2ncnc(n2)Nc2cccc(c2)CN2CCCC1C2 (stereo not drawn) [Compound 55]
100 to 1000 nM		O=C1NCCCc2cccc(c2)-c2ncnc(n2)Nc2cccc(c2)CN2CCC[C@@H]12 [Compound 56]
100 to 1000 nM		O=C1CCN2CCN(CC2)Cc2cccc(c2)Nc2ncnc(n2)-c2cccc(c2)CCCN1 [Compound 57]
100 to 1000 nM		O=C1CCN2CCN(CC2)Cc2cccc(c2)Nc2ncnc(n2)-c2cccc(c2)NCCN1 [Compound 60]
100 to 1000 nM		O=C1NCCNc2cccc(c2)-c2ncnc(n2)Nc2cccc(c2)CN2CCCC1C2 (stereo not drawn) [Compound 61]
100 to 1000 nM		O=C1NCCNc2cccc(c2)-c2ncnc(n2)Nc2cccc(c2)CN2CCC1CC2 [Compound 62]
100 to 1000 nM		C[C@@H]1NCc2cccc(c2)Nc2ncnc(n2)-c2cccc(c2)NCCNC1=O [Compound 63]
100 to 1000 nM		O=C1NCCNc2cccc(c2)-c2ncnc(n2)Nc2cccc(c2)CN[C@H]1Cc1ccccc1 [Compound 64]
100 to 1000 nM		CN1CCC(=O)NCCCCc2cc(ccn2)-c2ncnc(n2)Nc2cccc(c2)C1 [Compound 68]
100 to 1000 nM		O=C1NCCOc2ccc(cc2)-c2ncnc(n2)Nc2cccc(c2)CN2CCC1CC2 [Compound 73]
10 to 100 nM		O=C1COc2cccc(c2)Nc2ncnc(n2)-c2ccnc(c2)CCCN1 [Compound 74]
< 10 nM		CN1CC(=O)NCCOc2cccc(c2)Nc2ncnc(n2)-c2ccnc(c2)C1 [Compound 76]
100 to 1000 nM		CN1CC(=O)N2CCN(CCc3cc(ccn3)-c3ncnc(n3)Nc3cccc(c3)C1)CC2 [Compound 77]
10 to 100 nM		O=C1COc2cccc(c2)Nc2ncnc(n2)-c2ccnc(c2)CCCN2CCN1CC2 [Compound 78]
100 to 1000 nM		C=CCN1CC(=O)NCCNc2ncccc2-c2ncnc(n2)Nc2cccc(c2)C1 [Compound 79]
100 to 1000 nM		C[C@H]1NCCCc2cccc(c2)-c2ncnc(n2)Nc2ccccc2CNC1=O [Compound 80]
